Source: patent publication US20180177872A1, “Combination of PD-1 antagonist with an EGFR inhibitor” (priority 2015, published 2018)

Assays:
[1] = system: TMD-8 cells (BTK); experiment: BTK-dependent TMD-8 cell proliferation assay; format: cell-based; settings: Homo sapiens, TMD8, Cellular
Experimental: After 3 days, cell viability was measured using Cell Titer Glo.

[2] = system: mouse B cells; experiment: Mouse B cell proliferation assay; format: cell-based; settings: Cellular
Experimental: In the Mouse B cell assay, B cells are purified from mouse splenocytes and plated in the tissue culture plates with supplement of anti-IgM and m-IL4. […] After 3 days, cell viability was measured using Cell Titer Glo.

[3] = target: T1, TEC (Homo sapiens, UniProt P42680); experiment: TEC biochemical assay (Caliper LabChip)
T1 sequence (P42680 1-631): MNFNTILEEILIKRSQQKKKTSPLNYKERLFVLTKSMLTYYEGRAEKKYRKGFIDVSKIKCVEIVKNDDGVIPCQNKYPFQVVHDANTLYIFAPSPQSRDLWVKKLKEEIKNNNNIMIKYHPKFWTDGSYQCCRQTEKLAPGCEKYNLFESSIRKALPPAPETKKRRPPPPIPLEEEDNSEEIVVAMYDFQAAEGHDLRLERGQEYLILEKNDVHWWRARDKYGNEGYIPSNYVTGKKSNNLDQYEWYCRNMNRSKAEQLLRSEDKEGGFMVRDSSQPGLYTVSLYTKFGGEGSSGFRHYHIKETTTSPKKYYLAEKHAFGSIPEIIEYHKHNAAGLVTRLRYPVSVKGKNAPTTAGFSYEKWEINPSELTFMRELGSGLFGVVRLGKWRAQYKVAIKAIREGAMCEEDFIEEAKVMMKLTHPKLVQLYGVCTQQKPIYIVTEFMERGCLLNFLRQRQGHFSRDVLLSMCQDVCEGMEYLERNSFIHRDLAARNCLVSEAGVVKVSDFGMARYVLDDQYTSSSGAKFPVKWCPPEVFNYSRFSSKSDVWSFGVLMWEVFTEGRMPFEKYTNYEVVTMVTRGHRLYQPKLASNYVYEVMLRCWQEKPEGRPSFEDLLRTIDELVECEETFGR

[4] = system: T-cell dependent antibody response; experiment: T-cell dependent antibody response (TDAR) assay with KLH; settings: for anti-KLH IgG mean percent difference compared to vehicle controls / anti-KLH IgM mean percent difference compared to vehicle controls: 30 mg/kg/day
[5] = system: primary human CD4+ T cells; experiment: Human CD4 T cell proliferation assay; format: cell-based; settings: Cellular
Experimental: In the Human CD4 T cell assay, primary human CD4+ T cells isolated from a leukopak were cultured in the presence of anti-CD3/anti-CD28 beads to stimulate T cell proliferation. After 4 days, cell viability was measured using Cell Titer Glo.

[6] = system: mouse CD4+ T cells; experiment: Mouse CD4 T cell proliferation assay; format: cell-based; settings: Cellular
[7] = system: TEC-family kinases (ITK, TEC, and TXK); experiment: Cellular IL-2 production assay in Jurkat cells; format: cell-based; settings: Homo sapiens, CD3/CD28 stimulation, read-out: IC50, IL2-Production
Experimental: The cellular IL-2 Production assay was carried out using Jurkat cells. Upon CD3/CD28 stimulation overnight in the presence of various concentrations of compound, the IL-2 content in the conditioned media was measured by ELISA, and compound IC50 was determined.

[8] = target: T2, TXK (Homo sapiens, UniProt P42681); experiment: TXK biochemical assay (Caliper LabChip)
T2 sequence (P42681 1-527): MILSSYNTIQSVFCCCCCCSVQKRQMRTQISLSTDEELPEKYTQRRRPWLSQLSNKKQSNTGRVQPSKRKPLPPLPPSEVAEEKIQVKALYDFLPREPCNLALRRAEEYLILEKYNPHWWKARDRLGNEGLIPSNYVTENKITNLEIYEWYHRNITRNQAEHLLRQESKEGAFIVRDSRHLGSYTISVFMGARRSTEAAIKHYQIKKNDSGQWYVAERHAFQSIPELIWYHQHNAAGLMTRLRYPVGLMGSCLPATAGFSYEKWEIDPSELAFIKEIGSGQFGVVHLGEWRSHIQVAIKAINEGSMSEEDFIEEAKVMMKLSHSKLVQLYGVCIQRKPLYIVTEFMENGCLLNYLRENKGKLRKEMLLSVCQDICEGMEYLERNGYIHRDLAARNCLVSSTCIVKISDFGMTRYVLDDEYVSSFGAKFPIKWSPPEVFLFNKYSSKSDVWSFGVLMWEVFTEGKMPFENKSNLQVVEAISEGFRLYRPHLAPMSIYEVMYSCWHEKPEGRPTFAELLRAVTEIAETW

[9] = Pharmacokinetic (PK) modeling of flat dosing schedules
[10] = target: human PD-1 protein (Homo sapiens, UniProt Q15116); experiment: Biacore binding on human PD-1 protein; settings: Biacore method
Experimental: The binding of an exemplary humanized anti-PD-1 antibodies including Clone B and Clone E as shown in Table 1 on human PD-1 protein was measured using Biacore method.

[11] = Iso-electric focussing (Novex IEF) analysis; format: physicochemical; settings: estimated from staining positions against the IEF 3-10 marker
Experimental: Non-reduced samples of Protein A purified antibody were electrophoresed as described below.
5 μg of Protein A purified samples were electrophoresed on a 1.0 mm Novex pH 3-10 gradient gel (Invitrogen, EC66552BOX) using manufacturers recommended running conditions. A 10 μl aliquot of IEF pH 3-10 markers (Invitrogen, 39212-01) was included on the gel. Once electrophoresed, gels were fixed with 10% TCA solution for 30 min and then stained with InstantBlue (TripleRed, ISB01L) over night at room temperature. Images of the stained gels were analysed on a BioSpectrum Imaging System (UVP).

[12] = target: T3, human PD-1 protein (human, UniProt Q15116 25-167, limits assumed); experiment: Biacore, human PD-1 protein
T3 construct: Soluble protein in the Biacore assay

[13] = target: T4, human PD-1 expressed on 300.19 cells (human, UniProt Q15116 25-288); experiment: blocking of PD-L1 binding on human PD-1-expressing 300.19 cells; competitor PD-L1
T4 construct: whole, on cells; also called human PD-1-expressing 300.19 cells

[14] = target: cynomolgus PD-1 protein (cynomolgus, UniProt B0LAJ3 25-170); experiment: Biacore, cynomolgus PD-1
cynomolgus PD-1 protein, sequence (B0LAJ3 entry or part of it limits assumed): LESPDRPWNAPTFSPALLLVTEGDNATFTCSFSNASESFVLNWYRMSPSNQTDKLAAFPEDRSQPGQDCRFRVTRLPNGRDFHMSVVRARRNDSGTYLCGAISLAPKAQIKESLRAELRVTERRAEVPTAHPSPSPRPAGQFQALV

human PD-1 protein (Homo sapiens, UniProt Q15116), sequence (Q15116 25-288): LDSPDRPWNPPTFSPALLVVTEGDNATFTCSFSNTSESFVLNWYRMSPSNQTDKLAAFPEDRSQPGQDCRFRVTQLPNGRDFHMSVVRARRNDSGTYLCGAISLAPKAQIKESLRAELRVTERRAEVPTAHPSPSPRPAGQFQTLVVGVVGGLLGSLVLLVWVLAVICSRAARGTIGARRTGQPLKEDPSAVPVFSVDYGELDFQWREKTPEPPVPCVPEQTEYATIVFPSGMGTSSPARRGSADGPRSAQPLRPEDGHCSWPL
T4 sequence (Q15116 25-288): as above
T3 sequence (Q15116 25-167 limits assumed): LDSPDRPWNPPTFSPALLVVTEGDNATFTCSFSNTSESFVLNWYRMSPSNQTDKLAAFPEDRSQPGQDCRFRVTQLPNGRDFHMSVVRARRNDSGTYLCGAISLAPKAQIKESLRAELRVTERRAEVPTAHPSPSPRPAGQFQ

In the case of `Cc1cc(C(=O)Nc2nc3cccc(Cl)c3n2[C@@H]2CCCCN(C(=O)/C=C/CN(C)C)C2)ccn1` [Compound A, (R,E)-N-(7-chloro-1-(1-(4-(dimethylamino)but-2-enoyl)azepan-3-yl)-1Hbenzo[d]imidazol-2-yl)-2-methylisonicotinamide], the IC50 [1] is reported as 224 nM, the IC50 [2] is reported as 295 nM and the IC50 [3] is reported as 0.9 nM. For the same molecule, the “IC50, TEC” value ([3]; Biochemical) was “single digit nM”, the “anti-KLH IgG mean percent difference compared to vehicle controls” value (“anti-KLH IgG mean percent difference” for short) ([4]; female rats, study day 19) was −96% and the “anti-KLH IgM mean percent difference compared to vehicle controls” value (shortened to “anti-KLH IgM mean percent difference”) ([4]; female rats, study day 19) was −88%. For the same molecule, the “anti-KLH IgG mean percent difference” value ([4]; female rats, study day 21) was −98%, the “anti-KLH IgM mean percent difference” value ([4]; female rats, study day 21) was −75% and the “anti-KLH IgG mean percent difference” value ([4]; female rats, study day 23) was −97%. For the same molecule, the “anti-KLH IgM mean percent difference” value ([4]; female rats, study day 23) was −71%, the “anti-KLH IgG mean percent difference” value ([4]; female rats, study day 25) was −96% and the “anti-KLH IgM mean percent difference” value ([4]; female rats, study day 25) was −63%. For the same molecule, the “anti-KLH IgG mean percent difference” value ([4]; female rats, study day 36) was −69%, the “anti-KLH IgM mean percent difference” value ([4]; female rats, study day 36) was −67% and the “decrease of anti-KLH antibody production after withdrawal of treatment” value ([4]; male and female rats, recovery day 42 and 53) was “reversible”. For the same molecule, the “anti-KLH IgG mean percent difference” value ([4]; male rats, study day 19) was −78%, the “anti-KLH IgM mean percent difference” value ([4]; male rats, study day 19) was −67% and the “anti-KLH IgG mean percent difference” value ([4]; male rats, study day 21) was −84%. The “anti-KLH IgG mean percent difference” value ([4]; male rats, study day 23) was −80%, the “anti-KLH IgG mean percent difference” value ([4]; male rats, study day 25) was −83% and the IC50 [5] was 140 nM. For the same molecule, the IC50 [6] was 107 nM, the IC50 [7] was 21 nM and the IC50 [8] was 2 nM. For the same molecule, the “IC50, TXK” value ([8]; Biochemical) was “single digit nM”.

With “BAP049-Clone E: humanized anti-programmed death-1 (PD-1) IgG4 monoclonal antibody; sequences in Table 1” the Half-Life ([9]; 46 patients in PK dataset) was 20 [17, 23] days, the “IIV of CL” value ([9]; 46 patients in PK dataset) was 62% and the “IIV of Half-Life” value ([9]; 46 patients in PK dataset) was 64%. For the same molecule, the “IIV of Volume of distribution at SS” value ([9]; 46 patients in PK dataset) was 22%, the “Volume of distribution at SS” value ([9]; 46 patients in PK dataset) was 7.2 [6.5, 7.9] L and the “patients with Cmin above EC50” value ([9]; flat dose) was “Over 99.5%”. The “patients with Cmin above EC90” value ([9]; flat dose) was “over 93%”, the CL ([9]; flat dosing schedules, 46 patients in PK dataset) was 10.9 [8.9, 13.2] mL/h and the Ka [10] was 278000 M⁻¹ s⁻¹. For the same molecule, the Kd ([10]; rate constant) was 0.000213 s⁻¹, the “Basic charge isoforms (pI)” value [11] was 7.55 and the “pI of predominant charge isoform” value [11] was 7.5.

B1: BAP049-Clone-E (antibody, human IgG4 S228P, kappa, V domains shown)
VH: EVQLVQSGAEVKKPGESLRISCKGSGYTFTTYWMHWVRQATGQGLEWMGNIYPGTGGSNFDEKFKNRVTITADKSTSTAYMELSSLRSEDTAVYYCTRWTTGTGAYWGQGTTVTVSS
VL: EIVLTQSPATLSLSPGERATLSCKSSQSLLDSGNQKNFLTWYQQKPGQAPRLLIYWASTRESGVPSRFSGSGSGTDFTFTISSLEAEDAATYYCQNDYSYPYTFGQGTKVEIKR
notes: Humanized IgG4(S228P)/kappa; also called Antibody B; exemplary humanized anti-PD-1 antibody
With B1 the Kd [12] was 0.0827 nM, the IC50 [13] was 0.94 nM and the Kd [14] was 0.093 nM.
